Reference: patent publication US9446039B2, “Aminoheteroaryl compounds as MTH1 inhibitors” (CEMM—FORSCHUNGSZENTRUM FÜR MOLEKULARE MEDIZIN GMBH, priority 2012, dated 2016)

Tests used:
Type in all cases: binding
[1] = biological target: SW480 colon carcinoma cells lysate proteins (Homo sapiens, UniProt Q9NZI8); conditions: PreyGene IGF2BP1; SW480 cells
[2] = biological target: T1, SW480 colon carcinoma cells lysate proteins (Homo sapiens, UniProt P51659); conditions: PreyGene HSD17B4
T1 sequence (P51659 1-736): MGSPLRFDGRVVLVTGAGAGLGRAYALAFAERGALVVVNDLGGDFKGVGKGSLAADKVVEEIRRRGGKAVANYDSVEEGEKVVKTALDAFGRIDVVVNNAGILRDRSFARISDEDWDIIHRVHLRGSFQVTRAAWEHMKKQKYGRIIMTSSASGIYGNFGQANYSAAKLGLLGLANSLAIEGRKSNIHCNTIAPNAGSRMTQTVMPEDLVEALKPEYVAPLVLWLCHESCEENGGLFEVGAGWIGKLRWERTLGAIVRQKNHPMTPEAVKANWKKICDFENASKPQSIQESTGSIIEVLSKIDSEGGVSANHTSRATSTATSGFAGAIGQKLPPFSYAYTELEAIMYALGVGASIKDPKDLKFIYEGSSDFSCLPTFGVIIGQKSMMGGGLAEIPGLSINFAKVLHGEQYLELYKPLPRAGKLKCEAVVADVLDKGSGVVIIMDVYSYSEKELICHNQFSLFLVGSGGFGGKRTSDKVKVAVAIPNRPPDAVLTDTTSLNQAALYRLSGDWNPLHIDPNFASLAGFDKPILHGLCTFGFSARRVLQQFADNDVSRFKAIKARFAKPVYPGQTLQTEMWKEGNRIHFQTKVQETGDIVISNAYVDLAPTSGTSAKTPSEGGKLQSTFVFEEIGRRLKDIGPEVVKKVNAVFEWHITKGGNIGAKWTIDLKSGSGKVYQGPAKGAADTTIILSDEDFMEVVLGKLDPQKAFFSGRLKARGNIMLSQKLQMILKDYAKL

[3] = biological target: T2, SW480 colon carcinoma cells lysate proteins (Homo sapiens, UniProt Q9UJZ1); conditions: PreyGene STOML2; SW480 cells
T2 sequence (Q9UJZ1 29-356): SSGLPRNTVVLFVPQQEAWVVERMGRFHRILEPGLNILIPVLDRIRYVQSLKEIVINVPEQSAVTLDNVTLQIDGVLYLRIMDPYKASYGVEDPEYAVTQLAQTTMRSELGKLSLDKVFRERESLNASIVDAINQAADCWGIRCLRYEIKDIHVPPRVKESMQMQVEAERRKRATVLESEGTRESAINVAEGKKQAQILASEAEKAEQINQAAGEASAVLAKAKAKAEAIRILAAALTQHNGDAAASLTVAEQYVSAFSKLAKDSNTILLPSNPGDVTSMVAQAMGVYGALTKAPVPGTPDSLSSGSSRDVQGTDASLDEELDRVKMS

[4] = biological target: T3, SW480 colon carcinoma cells lysate proteins (Homo sapiens, UniProt O00764); conditions: PreyGene PDXK
T3 sequence (O00764 1-312): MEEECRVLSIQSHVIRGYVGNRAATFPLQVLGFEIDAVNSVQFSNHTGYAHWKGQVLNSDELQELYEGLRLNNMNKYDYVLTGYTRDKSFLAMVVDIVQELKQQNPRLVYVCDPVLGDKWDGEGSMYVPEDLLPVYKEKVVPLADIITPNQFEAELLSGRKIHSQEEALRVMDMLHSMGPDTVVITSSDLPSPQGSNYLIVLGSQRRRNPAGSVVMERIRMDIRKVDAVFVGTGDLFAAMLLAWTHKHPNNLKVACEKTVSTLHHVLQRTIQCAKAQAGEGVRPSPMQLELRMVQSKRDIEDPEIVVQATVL

[5] = biological target: T4, SW480 colon carcinoma cells lysate proteins (Homo sapiens, UniProt Q15102); conditions: PreyGene PAFAH1B3; SW480 cells
T4 sequence (Q15102 1-231): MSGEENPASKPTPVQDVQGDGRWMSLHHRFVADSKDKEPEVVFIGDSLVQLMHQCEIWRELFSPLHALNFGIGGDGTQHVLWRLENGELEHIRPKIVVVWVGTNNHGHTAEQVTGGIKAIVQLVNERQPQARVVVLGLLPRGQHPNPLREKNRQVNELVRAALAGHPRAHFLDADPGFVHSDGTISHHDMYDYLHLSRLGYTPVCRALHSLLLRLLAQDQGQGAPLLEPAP

[6] = biological target: T5, SW480 colon carcinoma cells lysate proteins (Homo sapiens, UniProt P30043); conditions: PreyGene BLVRB
T5 sequence (P30043 1-206): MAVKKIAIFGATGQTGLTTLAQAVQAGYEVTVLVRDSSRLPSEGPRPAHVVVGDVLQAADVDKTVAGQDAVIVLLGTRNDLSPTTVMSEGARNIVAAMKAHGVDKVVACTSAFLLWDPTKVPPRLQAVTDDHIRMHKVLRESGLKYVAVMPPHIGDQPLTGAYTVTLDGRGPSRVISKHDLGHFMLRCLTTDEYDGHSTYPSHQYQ

Sequence of SW480 colon carcinoma cells lysate proteins (Homo sapiens, UniProt Q9NZI8) (Q9NZI8 whole entry): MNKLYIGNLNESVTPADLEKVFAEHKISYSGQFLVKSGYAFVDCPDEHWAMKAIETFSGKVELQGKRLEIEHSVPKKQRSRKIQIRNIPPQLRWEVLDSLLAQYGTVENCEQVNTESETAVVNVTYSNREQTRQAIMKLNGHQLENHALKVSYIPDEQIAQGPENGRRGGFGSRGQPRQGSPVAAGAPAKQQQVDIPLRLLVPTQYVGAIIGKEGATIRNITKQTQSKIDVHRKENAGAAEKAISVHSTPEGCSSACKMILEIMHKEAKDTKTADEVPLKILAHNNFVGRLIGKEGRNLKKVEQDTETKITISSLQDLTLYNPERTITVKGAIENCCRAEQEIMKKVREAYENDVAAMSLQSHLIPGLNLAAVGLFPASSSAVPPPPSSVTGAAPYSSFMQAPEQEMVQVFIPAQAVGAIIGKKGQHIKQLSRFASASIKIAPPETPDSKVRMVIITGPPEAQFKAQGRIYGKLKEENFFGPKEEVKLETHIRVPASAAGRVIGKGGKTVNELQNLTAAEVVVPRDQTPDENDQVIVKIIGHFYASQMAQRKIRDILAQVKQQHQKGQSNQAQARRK

C[C@H](Oc1cc(-c2cnn(C3CCNCC3)c2)cnc1N)c1c(Cl)ccc(F)c1Cl [(5)-crizotinib]
AvgP [1]: 0
SC.Exp. 1-1 [1]: 4
SC.Exp. 1-2 [1]: 8
SC.Exp. 2-1 [1]: 4
SC.Exp. 2-2 [1]: 6
SC.Exp. Sum [1]: 22
AvgP [2]: 0.3179
SC.Exp. 1-1 [2]: 2
SC.Exp. 1-2 [2]: 3
SC.Exp. 2-1 [2]: 0
SC.Exp. 2-2 [2]: 0
Sum (SC.Exp.) [2]: 5
AvgP [3]: 0
SC.Exp. 1-1 [3]: 5
SC.Exp. 1-2 [3]: 4
SC.Exp. 2-1 [3]: 2
SC.Exp. 2-2 [3]: 2
SC.Exp. Sum [3]: 13
AvgP [4]: 0.2207
SC.Exp. 1-1 [4]: 3
SC.Exp. 1-2 [4]: 0
SC.Exp. 2-1 [4]: 0
SC.Exp. 2-2 [4]: 0
Sum (SC.Exp.) [4]: 3
AvgP [5]: 0
SC.Exp. 1-1 [5]: 1
SC.Exp. 1-2 [5]: 1
SC.Exp. 2-1 [5]: 0
SC.Exp. 2-2 [5]: 0
SC.Exp. Sum [5]: 2
AvgP [6]: 0.1915
SC.Exp. 1-1 [6]: 0
SC.Exp. 1-2 [6]: 2
SC.Exp. 2-1 [6]: 0
SC.Exp. 2-2 [6]: 0
Sum (SC.Exp.) [6]: 2
